Structures are written as SMILES. Calls of active or inactive are those of the source.

Assay [1] in a line: miR-122 activators in hepatoma reporter cells, dose response, cell-based, Huh7 psiCHECK-miR122, Renilla luciferase, cherry-picked (AID 651956).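 Further: huh7 hepatoma cells stably carrying a psiCHECK-2 miR-122 sensor plasmid; renilla luciferase signal reporting endogenous miR-122 activity after 48 h compound exposure.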 Type of assay: functional.
Assay [2] addresses Photoreceptor-specific nuclear receptor (Homo sapiens, UniProt Q9Y5X4). The class given is functional, cell-based.
The target of assay [3] is T1, Fatty acid synthase (Homo sapiens, UniProt P49327). Kind of assay: FAS thioesterase domain inhibitors, dose response, biochemical, endpoint fluorescence intensity, uHTS hits (AID 624327).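 Further: fluorescence from hydrolysis of an O-methyl fluorescein acyl ester substrate by the enzyme.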 The class given is functional.
T1 sequence (P49327 whole entry, the tested form may be a part): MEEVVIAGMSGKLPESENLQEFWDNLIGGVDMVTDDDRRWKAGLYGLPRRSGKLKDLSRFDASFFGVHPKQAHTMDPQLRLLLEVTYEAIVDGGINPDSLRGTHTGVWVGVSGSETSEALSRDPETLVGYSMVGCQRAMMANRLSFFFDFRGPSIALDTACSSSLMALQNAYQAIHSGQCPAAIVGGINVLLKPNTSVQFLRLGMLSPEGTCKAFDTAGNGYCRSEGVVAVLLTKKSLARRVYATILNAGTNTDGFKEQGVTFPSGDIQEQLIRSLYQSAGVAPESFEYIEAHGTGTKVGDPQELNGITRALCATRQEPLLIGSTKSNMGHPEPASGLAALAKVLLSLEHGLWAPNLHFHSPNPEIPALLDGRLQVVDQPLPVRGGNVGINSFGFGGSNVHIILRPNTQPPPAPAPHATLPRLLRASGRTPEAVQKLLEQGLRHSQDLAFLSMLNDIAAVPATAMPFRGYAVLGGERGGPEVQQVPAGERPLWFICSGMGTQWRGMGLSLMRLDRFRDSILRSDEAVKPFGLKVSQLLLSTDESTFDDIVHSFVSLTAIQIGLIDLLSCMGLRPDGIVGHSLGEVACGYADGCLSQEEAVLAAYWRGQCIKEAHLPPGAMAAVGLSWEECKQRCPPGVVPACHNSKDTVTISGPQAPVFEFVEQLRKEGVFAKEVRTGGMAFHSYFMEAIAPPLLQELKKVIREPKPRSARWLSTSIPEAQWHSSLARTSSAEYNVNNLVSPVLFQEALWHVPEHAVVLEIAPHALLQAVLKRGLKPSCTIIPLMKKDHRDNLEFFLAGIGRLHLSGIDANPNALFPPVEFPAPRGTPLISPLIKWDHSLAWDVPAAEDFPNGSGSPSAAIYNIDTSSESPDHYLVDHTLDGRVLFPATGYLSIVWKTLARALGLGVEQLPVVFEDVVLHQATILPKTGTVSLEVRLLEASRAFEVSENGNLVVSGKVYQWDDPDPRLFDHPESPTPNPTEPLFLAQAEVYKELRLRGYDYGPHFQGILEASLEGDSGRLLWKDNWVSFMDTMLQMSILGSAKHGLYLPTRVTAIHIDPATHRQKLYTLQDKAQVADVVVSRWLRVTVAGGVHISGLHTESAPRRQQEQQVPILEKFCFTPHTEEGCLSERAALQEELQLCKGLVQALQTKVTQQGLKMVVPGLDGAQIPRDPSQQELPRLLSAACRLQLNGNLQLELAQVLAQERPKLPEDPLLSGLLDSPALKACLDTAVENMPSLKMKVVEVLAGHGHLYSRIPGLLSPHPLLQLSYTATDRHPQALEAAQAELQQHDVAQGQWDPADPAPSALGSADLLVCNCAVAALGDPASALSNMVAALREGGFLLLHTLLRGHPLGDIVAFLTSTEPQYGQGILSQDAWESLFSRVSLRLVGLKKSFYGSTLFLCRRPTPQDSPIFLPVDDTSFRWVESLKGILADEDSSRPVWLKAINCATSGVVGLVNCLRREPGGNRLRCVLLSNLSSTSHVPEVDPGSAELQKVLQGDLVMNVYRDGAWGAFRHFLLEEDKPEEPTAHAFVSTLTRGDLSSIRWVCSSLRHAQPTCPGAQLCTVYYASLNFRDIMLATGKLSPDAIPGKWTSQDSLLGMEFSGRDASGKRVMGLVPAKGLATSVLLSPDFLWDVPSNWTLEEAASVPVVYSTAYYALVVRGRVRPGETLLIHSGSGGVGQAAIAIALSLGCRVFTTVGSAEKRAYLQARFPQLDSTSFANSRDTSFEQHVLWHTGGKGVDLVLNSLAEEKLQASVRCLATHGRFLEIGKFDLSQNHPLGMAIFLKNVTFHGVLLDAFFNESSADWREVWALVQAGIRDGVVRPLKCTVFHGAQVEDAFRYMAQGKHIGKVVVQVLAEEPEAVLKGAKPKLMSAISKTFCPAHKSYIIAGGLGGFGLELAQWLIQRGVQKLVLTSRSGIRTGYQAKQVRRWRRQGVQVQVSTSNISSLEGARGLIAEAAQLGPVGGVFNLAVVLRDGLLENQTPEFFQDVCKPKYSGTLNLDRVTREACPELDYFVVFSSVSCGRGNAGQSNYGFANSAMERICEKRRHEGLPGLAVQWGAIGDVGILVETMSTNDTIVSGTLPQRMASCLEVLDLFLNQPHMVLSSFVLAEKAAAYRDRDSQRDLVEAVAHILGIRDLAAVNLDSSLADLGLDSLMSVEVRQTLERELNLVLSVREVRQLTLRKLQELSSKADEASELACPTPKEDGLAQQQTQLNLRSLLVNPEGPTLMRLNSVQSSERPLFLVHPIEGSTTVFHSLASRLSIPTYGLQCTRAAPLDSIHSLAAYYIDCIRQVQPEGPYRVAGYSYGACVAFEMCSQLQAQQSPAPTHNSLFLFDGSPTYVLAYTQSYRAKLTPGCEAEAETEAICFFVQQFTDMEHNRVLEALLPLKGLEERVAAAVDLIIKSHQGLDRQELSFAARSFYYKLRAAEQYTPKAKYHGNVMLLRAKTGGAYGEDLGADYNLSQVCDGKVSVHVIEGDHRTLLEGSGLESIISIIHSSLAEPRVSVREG
Assay [4] addresses T1, Fatty acid synthase. Nature of the assay: FAS thioesterase domain inhibitors, dose response, biochemical, kinetic fluorescence intensity (AID 624326).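 Further: rate of fluorescence rise from hydrolysis of a fluorogenic O-methyl fluorescein ester substrate.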 The class given is functional.
For assay [5], the target named is T2, Sentrin-specific protease 1 (Homo sapiens, UniProt Q9P0U3).
T2 sequence (Q9P0U3 whole entry): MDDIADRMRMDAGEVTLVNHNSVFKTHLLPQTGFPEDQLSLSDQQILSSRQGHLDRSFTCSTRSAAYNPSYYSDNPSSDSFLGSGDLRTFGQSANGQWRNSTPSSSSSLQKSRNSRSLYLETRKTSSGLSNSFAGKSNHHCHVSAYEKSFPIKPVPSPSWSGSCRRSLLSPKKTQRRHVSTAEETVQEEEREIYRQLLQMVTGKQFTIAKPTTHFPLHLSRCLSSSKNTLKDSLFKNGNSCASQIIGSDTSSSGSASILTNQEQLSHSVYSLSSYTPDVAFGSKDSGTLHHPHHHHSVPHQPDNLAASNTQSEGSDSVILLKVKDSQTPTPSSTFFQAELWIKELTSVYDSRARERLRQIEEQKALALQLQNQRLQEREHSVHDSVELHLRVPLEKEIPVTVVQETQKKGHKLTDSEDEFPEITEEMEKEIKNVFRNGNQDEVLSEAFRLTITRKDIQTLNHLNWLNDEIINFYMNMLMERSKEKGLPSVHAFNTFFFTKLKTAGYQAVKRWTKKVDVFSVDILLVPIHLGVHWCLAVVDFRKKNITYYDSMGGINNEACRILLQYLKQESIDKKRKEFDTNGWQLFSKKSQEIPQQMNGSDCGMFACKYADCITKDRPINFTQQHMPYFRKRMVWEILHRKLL
Nature of the assay: potency of human SENP1 inhibitors, dose response, biochemical, kinetic FRET (AID 651697). The class given is functional. Conditions: read-out: IC50_Mean.

In assay [6] the target is T2, Sentrin-specific protease 1. Kind of assay: Dose response confirmation of small molecule inhibitors of the catalytic domain of the SUMO protease, SENP1 in a FRET assay. Type of assay: functional. Conditions: read-out: IC50_Mean.
The target of assay [7] is T3, RNA-binding protein pos-1 (Caenorhabditis elegans, UniProt G5EF15).
T3 sequence (G5EF15 whole entry): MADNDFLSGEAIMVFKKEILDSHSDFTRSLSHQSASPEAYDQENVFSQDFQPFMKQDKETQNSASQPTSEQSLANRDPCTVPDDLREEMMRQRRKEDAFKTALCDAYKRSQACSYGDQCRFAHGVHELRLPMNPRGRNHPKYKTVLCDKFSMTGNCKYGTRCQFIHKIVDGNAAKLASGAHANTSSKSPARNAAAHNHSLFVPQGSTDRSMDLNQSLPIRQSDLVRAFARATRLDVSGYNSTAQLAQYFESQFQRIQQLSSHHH
Kind of assay: inhibitors of POS-1/mex-3 RNA binding, dose response, biochemical, fluorescence polarization (AID 1964).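 Further: purified POS-1 fused to maltose binding protein made in E. coli; potency of compounds blocking POS-1 binding to fluorescent RNA.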 On the technique in general: Polarisation of emitted light reports the rotation of a fluorescent probe.

Assay [8] has as its target T4, Zinc finger protein mex-5 (Caenorhabditis elegans, UniProt Q9XUB2).
T4 sequence (Q9XUB2 whole entry): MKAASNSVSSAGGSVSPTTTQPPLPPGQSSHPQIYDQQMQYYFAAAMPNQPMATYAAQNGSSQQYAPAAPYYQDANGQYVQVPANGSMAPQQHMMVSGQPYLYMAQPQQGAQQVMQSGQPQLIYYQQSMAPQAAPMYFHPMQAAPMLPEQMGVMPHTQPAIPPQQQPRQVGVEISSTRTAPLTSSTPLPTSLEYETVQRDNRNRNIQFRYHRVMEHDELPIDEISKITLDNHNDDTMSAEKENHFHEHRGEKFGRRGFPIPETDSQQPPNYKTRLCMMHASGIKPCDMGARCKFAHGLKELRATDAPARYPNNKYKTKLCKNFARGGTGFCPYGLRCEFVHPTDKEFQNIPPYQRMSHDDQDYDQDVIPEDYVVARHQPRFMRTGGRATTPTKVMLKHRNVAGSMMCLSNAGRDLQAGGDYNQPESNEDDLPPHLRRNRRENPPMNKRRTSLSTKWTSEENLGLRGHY
Kind of assay: MEX-5/TCR-2 RNA interaction inhibitors, dose response, biochemical, C. elegans, fluorescence polarization (AID 1960).

Assay [9] is described as follows: inhibitors of intracellular T. cruzi replication, confirmation, NIH3T3 host cells, beta-gal luminescence (AID 2044).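 Further: intracellular parasites grown in NIH/3T3 mouse fibroblasts as host cells; luminescent beta-galactosidase reporter signal from transgenic T. cruzi replicating inside host cells; inhibitors lower the luminescence signal.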 The class given is functional, cell-based.
The nature of assay [10]: cytotoxicity toward NIH3T3 fibroblasts, dose response, counter-screen, cell-based, ATP luminescence, mouse fibroblasts (AID 2010).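 Further: cells exposed to compound for about 90 hours before reading.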 Type of assay: functional. (In general: The purpose of a counterscreen is to sort out artefacts and off-target activity.)
In assay [11] the target is Nuclear receptor subfamily 5 group A member 2 (Homo sapiens, UniProt O00482). Type of assay: functional, cell-based.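 Further: HEK293T cells transfected with LRH-1 and a StAR promoter luciferase reporter; potency for inhibitors that lower LRH-1 driven reporter light.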
Sequence of Nuclear receptor subfamily 5 group A member 2 (O00482 whole entry): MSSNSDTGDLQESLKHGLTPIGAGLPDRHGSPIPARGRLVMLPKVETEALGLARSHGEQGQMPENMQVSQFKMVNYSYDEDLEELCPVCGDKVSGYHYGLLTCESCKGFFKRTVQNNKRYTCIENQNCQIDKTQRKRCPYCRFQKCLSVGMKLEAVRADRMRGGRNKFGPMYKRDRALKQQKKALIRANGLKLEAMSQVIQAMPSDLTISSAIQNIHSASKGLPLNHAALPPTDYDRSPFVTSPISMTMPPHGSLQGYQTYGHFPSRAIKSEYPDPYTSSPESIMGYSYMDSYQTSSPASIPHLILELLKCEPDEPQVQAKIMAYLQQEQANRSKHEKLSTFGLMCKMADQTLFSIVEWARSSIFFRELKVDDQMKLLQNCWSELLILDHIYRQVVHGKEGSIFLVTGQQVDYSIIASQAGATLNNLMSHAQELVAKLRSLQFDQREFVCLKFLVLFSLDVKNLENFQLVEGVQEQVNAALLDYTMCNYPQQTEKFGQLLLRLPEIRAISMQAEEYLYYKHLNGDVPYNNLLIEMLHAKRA
For assay [12], the target named is T5, Long-chain-fatty-acid--AMP ligase FadD28 (Mycobacterium tuberculosis, UniProt P9WQ59).
T5 sequence (P9WQ59 whole entry): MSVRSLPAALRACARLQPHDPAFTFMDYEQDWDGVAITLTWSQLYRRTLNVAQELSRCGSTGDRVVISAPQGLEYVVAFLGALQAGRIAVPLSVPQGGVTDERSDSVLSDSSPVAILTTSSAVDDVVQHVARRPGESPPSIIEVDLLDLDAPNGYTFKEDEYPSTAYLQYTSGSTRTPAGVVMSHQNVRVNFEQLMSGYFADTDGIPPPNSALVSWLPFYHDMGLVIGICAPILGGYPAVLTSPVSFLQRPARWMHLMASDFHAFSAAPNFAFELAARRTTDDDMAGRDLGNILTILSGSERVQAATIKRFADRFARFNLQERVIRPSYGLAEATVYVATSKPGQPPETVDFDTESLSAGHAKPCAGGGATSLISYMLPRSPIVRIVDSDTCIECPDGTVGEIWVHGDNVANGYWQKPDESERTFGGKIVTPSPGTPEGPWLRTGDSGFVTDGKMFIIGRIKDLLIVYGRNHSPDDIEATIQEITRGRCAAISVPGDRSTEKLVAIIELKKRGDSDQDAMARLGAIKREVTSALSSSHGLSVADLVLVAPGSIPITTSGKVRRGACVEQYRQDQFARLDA
Nature of the assay: Fluorescence polarization aasay to screen for inhibitors that compete for the binding of FadD28 to a bisubstrate Measured in Biochemical System Using Plate Reader - 2147-01_Inhibitor_Dose_CherryPick_Activity. The class given is functional, Mycobacterium tuberculosis H37Rv.

The next assay addresses Steroidogenic factor 1 (Homo sapiens, UniProt Q13285). Kind of assay: Counterscreen for inverse agonists of the liver receptor homolog-1 (LRH-1; NR5A2): Luminescence-based cell-based high throughput dose response assay to identify inverse agonists of the Steroidogenic Factor 1 Nuclear Receptor (SF1; NR5A1). Type of assay: functional.
Assay [13] is described as follows: StAR promoter reporter inhibition counter-screen, dose response, counter-screen for LRH-1 inverse agonist project, cell-based, luminescence, luciferase reporter (AID 651969). The class given is functional.
Assay [14] concerns the target T6, DNA repair and recombination protein RAD54-like (Homo sapiens, UniProt Q92698).
T6 sequence (Q92698 whole entry): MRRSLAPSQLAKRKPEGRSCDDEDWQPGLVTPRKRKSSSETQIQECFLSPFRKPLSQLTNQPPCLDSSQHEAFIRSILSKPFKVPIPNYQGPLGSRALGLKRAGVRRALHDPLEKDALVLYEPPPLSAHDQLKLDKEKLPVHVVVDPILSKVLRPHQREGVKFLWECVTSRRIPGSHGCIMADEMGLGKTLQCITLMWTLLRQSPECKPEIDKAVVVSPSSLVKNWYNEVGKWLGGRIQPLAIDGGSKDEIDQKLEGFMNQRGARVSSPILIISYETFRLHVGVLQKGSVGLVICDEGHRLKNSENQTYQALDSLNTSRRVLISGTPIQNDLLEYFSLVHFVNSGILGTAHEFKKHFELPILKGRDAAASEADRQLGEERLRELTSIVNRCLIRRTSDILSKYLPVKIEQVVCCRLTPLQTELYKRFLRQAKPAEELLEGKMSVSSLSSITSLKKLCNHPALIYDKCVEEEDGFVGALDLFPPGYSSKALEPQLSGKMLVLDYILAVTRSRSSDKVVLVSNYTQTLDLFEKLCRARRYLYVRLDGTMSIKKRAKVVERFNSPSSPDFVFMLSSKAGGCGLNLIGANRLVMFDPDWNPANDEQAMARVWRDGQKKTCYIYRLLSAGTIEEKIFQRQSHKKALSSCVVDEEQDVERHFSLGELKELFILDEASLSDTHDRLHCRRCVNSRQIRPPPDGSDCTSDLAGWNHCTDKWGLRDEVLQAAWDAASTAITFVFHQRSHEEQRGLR
Kind of assay: inhibitors of human RAD54 branch migration, confirmation, biochemical, fluorescence, cherry-picked samples, dose series (AID 651657). The class given is functional.

The target of assay [15] is T7, DNA repair protein RAD52 homolog (Homo sapiens, UniProt P43351).
T7 sequence (P43351 whole entry): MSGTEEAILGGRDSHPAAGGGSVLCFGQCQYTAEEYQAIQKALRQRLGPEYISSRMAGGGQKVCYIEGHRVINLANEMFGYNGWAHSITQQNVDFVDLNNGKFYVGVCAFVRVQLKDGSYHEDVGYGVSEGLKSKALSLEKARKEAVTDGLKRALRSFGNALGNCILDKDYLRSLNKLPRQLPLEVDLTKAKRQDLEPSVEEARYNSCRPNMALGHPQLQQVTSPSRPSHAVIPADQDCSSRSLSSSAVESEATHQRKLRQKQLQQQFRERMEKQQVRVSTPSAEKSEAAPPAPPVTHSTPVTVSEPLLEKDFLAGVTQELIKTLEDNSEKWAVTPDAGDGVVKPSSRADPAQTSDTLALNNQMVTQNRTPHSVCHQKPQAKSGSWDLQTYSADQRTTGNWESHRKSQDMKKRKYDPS
Type of assay: functional, biochemical.

The target of assay [16] is T8, Carboxy-terminal domain RNA polymerase II polypeptide A small phosphatase 1 (Homo sapiens, UniProt Q9GZU7).
T8 sequence (Q9GZU7 whole entry): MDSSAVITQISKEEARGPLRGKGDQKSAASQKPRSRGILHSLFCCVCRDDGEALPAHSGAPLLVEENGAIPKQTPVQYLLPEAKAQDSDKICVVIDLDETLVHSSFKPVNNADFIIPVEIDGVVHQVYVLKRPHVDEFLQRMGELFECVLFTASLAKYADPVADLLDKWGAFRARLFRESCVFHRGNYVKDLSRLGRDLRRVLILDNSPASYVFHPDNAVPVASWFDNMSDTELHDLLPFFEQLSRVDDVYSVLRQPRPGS
Kind of assay: inhibitors of CTDSP1, concentration-response testing, biochemical assay, absorbance-based, actives from ultra-high-throughput screening (AID 540297). The class given is functional.

Assay [17] has as its target T9, Low molecular weight phosphotyrosine protein phosphatase (Homo sapiens, UniProt P24666).
T9 sequence (P24666 whole entry): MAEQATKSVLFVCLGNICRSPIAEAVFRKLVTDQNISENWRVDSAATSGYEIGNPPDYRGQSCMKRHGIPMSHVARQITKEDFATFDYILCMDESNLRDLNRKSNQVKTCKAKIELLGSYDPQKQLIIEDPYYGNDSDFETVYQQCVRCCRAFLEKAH
The class given is functional. The conditions noted are these: read-out: IC50_Mean.

Assay [18] has as its target T9, Low molecular weight phosphotyrosine protein phosphatase. Type of assay: functional. Conditions: read-out: IC50_Mean. The source holds these as a separate data set.

Sequence of Steroidogenic factor 1 (Q13285 whole entry): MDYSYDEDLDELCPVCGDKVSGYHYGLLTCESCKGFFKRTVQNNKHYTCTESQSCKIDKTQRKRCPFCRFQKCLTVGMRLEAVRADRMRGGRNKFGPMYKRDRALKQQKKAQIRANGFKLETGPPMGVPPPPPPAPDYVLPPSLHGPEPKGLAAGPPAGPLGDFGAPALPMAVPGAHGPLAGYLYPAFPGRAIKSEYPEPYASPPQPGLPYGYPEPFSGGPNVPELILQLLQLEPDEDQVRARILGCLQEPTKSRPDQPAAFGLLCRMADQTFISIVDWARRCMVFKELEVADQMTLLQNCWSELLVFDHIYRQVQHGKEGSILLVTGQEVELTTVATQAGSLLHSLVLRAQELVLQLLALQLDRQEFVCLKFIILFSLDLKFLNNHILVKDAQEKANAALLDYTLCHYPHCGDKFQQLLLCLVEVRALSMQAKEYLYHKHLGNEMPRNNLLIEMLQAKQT
Sequence of Photoreceptor-specific nuclear receptor (Q9Y5X4 whole entry, the tested form may be a part): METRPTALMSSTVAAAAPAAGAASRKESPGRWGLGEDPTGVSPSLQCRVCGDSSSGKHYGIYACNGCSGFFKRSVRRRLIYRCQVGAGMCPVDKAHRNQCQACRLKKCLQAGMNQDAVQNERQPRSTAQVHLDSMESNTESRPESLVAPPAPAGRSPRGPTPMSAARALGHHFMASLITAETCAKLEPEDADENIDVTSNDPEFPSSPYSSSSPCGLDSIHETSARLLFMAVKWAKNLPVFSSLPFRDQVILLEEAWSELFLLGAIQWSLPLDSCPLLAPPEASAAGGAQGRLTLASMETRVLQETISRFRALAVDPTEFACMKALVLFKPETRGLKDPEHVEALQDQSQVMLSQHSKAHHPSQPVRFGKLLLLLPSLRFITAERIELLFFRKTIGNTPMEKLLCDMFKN

For `C[C@@H]1CN([C@@H](C)CO)S(=O)(=O)c2ccc(C#CC3(O)CCCC3)cc2O[C@@H]1CN(C)C(=O)c1cccnc1`, the concentration at half-maximal activity (AC50) (in general, the concentration at which the activity in the assay is half-maximal) in assay [1] is 7.95 µM (active).

As to `CCCCCCCCCCCCN1[C@@H](CC(=O)O)c2cc(F)ccc2S1(=O)=O`, the IC50 in assay [2] is 4.28 µM (active); on Fatty acid synthase [3], 2.83 µM (active); on Fatty acid synthase [4] it was 2.62 µM (active).

As for `CN(C)C(=O)CSc1ccc(S(=O)(=O)N2CCCC2)cn1`, the IC50 in [5] is 12.9 µM (active); in assay [6], 20.7 µM (inactive).

Regarding `Cc1ccc2cc(/C=C(\C#N)C(N)=O)c(N3CCCCC3)nc2c1`, the EC50 (usually the concentration at which the effect is half-maximal) was 50.6 µM (active) in [7] and 30.7 µM (inconclusive) in [8]. For the same molecule, the IC50 in assay [5] is 18.4 µM (active); in [6], 36.2 µM (inactive).

On to `COC(=O)c1ccc(COc2ccc(/C=N/NC(N)=S)cc2)o1`, for which the figures for the EC50 in assay [9] and in assay [10] were 1.39 µM (active) and > 60 µM (not active), respectively. Further, the IC50 in [11] was 9.77 µM (active); on Steroidogenic factor 1, 1.97 µM (active); in assay [13] it was 35.9 µM (inactive). In addition, the half-maximal activity concentration (AC50) in [12] was 3.63 µM (active).

For the molecule `CN(C)CCNc1ncnc2sc(-c3ccccc3)cc12`, the half-maximal activity concentration (AC50) in [14] is 27.2 µM (active); in [15], 9 µM (active).

Regarding `O=C(CSc1nc(-c2ccccc2)nc2ccc(F)cc12)Nc1cccc(C(=O)O)c1`, the IC50 in assay [16] was 6.6 µM (active); in [17], 42.2 µM (inactive); in [18], 21.4 µM (inactive).

Turning to `O=C(CN1C(=O)CCC1=O)Nc1ccc(Br)cc1`, the IC50 in [11] is 11.1 µM (inactive); at Steroidogenic factor 1, 8.78 µM (active); in [13], 35.9 µM (inactive).

For `Cc1cc(C)n2c(Nc3c(C)cccc3C)c(-c3cccnc3)nc2n1`, the values for the IC50 in [5] and in assay [6] were 28.3 µM (inactive) and 16.8 µM (active), respectively.

Turning to `O=[N+]([O-])c1cc(F)c(N2CCCCCC2)cc1N1CCNCC1`, the values for the IC50 (in assay [11]; at Steroidogenic factor 1; in assay [13]) were 3.99 µM (active), 6.27 µM (active) and 35 µM (inactive), respectively.

These data come from ChEMBL document CHEMBL1201862, “PubChem BioAssay data set” (2004).
